Source: article PMC8330957 (Nature genetics, 2020)
“Also recorded” adds a separate entry of the source.

Columns and labels:
JURKAT cells [1] = test: RNA-seq of JURKAT cells treated with UNC1999; format: cell-based, human; conditions: three-day treatment with 5 μM UNC1999
JURKAT cells [2] = test: RT-qPCR of H3K27me3-marked genes after UNC1999 treatment, JURKAT; format: cell-based, human; conditions: 5 μM UNC1999, three days, three independent experiments
CUTLL1 cells = test: RT-qPCR of H3K27me3-marked genes after UNC1999 treatment, CUTLL1; format: cell-based, human; conditions: 5 μM UNC1999, three days, three independent experiments
[3] = system: BAHCC1 (chromatin-bound), 293 cells; test: Cell fractionation and immunoblotting of chromatin-bound BAHCC1; format: cell-based; conditions: immunoblotting after cell fractionation, UNC1999 versus DMSO
[4] = system: 3×Flag-BAHCC1 at TSS of target genes, JURKAT cells; test: Flag ChIP-qPCR of BAHCC1 binding to target genes; format: cell-based, human; conditions: UNC1999 versus DMSO, three independent experiments

SMILES: CCCc1cc(C)[nH]c(=O)c1CNC(=O)c1cc(-c2ccc(N3CCN(C(C)C)CC3)nc2)cc2c1cnn2C(C)C [UNC1999]
- overlap of UNC1999-derepressed DEGs with those caused by BAHCC1 loss (JURKAT cells [1]): significant overlapping; also recorded: significantly overlapped
- expression of examined H3K27me3-marked genes (JURKAT cells [2]): re-activation
- expression of examined H3K27me3-marked genes (CUTLL1 cells): re-activation
- overall BAHCC1 binding to chromatin [3]: impaired
- BAHCC1 binding to its target genes [4]: significantly reduced
